Key:
[1] = in vivo; cited from earlier work
[2] = system: endogenous reduced glutathione (GSH); assay: In vivo antioxidation: striatum/serum endogenous GSH after IP injection of compound A; set-up: species or system Balb/c mice; conditions: injected IP, 100-300 mg/kg, three hours post injection
Procedure: With reference now to FIG. 3. To this end, three groups of two months old Balb/c mice containing two animals in each group were injected intraperitonealy (IP) with 100-300 mg/kg body weight of compound A. Blood samples were drawn from the tail three hours post injection and then the animals were sacrificed and either the corpus striatum or the whole brain were removed and analyzed for GSH levels.
GSH levels were determined using the experimental procedures as described hereinbelow and/or the GSH-400 kit (Oxis International, Inc.).
Preparation of brain homogenates: Animals were rapidly killed and exsanguinated to remove excess blood from the brain. The brain of each animal was rinsed in a beaker containing water, lightly blotted to dry and were weighted. The striatums were transferred into a hand-homogenizer tube and each was homogenized using a constant number (e.g., 20) of up and down strokes of the hand-homogenizer pestle. Each of the homogenates was poured into a centrifuge tube and centrifuged for 10,000×g for 5 min. The supernatant was used for GSH determination as follows.
GSHAssay: For each measurement, 200 μl of sample were incubated with 20 μl DTNB [5,5′ dithio bis(2-nitrobenzoic acid)] for 1 hour in 37° C. Final absorbance was measured at 400 nm. Similar results were obtained using the GSH-400 kit. […]

[3] = system: Neuroblastoma SHSY5Y (NB) cells; assay: Protection from oxidative stress in vitro, neutral red survival assay; assay type: cell-based; conditions: compound at 0.1 mM
Procedure: Protection from oxidative stress in vitro: Neuroblastoma SHSY5Y (NB) cells were maintained in Dulbeco's Modified Eagle's Medium (DMEM), supplemented with 8% FCS and 8% horse serum, penicillin (25 μg/ml), streptomycin (25 μg/ml), 2 mM L-glutamine and 400 μg/ml G418 (Gibco/BRL). For protection experiments cells were subcultured (in 2% serum) to poly-L-lysine-coated 96-well microtiter plates (Nunc), 100 μl of 5×10^5 cells/ml, CEA was applied to the cells in each well and 4 hours later DA, L-dopa (levodopa), 6-OHDA and MPP+ were added for 24 hours.
Survival was assayed by adding neutral red (0.34%, Sigma) to cells in DCCM-1 medium (0.1 ml/well, Bet-Haemek) and incubation for 2 hour at 37° C. The cells were then washed with cold PBS containing 10 mM MgCl2 and the dye was dissolved in 50% ethanol in 50% Somerson buffer (70 mM sodium citrate, 30 mM citric acid, 0.1 N HCl). ELISA reader (590 nm) was used to measure the remaining color intensity.

[4] = Crossing the blood-brain-barrier: compound J level in brain extracts by fluorescent labeling and HPLC; assay type: in vivo, C57BL/6J mice; conditions: IP injection 0.25-4 mg, brain extracts 15 min later
Procedure: Detection of compound j (referred to in this Example also as CEA) was established using high performance liquid chromatography (HPLC). To this end, CEA was treated with a fluorescent thiolyte reagent (monobromobimane reagent) and analyzed on an HPLC column.
Crossing the blood-brain-barrier: In vivo experiments were carried out on C57BL/6J mice (15 grams) injected IP with compound J. After incubation (15 min, 60 min or 4 hours) the mice were anesthetized with ether and blood samples were drawn. Then mice underwent perfusion with 50 ml of saline, injected into the right ventricle. The levels of compound I in the brain and in the plasma were detected by selective fluorescent labeling using high performance liquid chromatography (HPLC).
Increasing amounts of compound J were injected IP and 15 min later, mice were perfused with saline and compound J levels in the brain extracts were determined by HPLC chromatography (FIG. 5b), as compared to a control, pure, uninjected compound J (FIG. 5a).

[5] = system: GSH; assay: Brain GSH levels after IP injection of compound J (HPLC); assay type: in vivo, C57BL/6J mice; conditions: brain extract after IP injection
[6] = system: MOG-induced EAE; assay: Prevention of MOG-induced experimental autoimmune encephalomyelitis (EAE); assay type: in vivo, C3H.SW female mice; conditions: 200 mg/kg IP twice a day plus 300 mg/kg in drinking water
Procedure: EAE was induced in C3H.SW female mice (4-6 weeks old, Harlen, Rehovot, Israel) by immunization with the peptide encompassing amino acids 35-55 of rat myelin oligodendrocyte glycoprotein (MOG). Synthesis was carried out by the Weizmann Institute Synthesis Unit, using a solid-phase technique on a peptide synthesizer (Applied Biosystems Inc., Foster City, Calif. City). Mice were injected subcutaneously at one site in the flank with a 200 μl emulsion containing 75 μg MOG peptide in complete Freund's adjuvant (CFA). An identical booster immunization was given at one site of the other flank one week later. Mice (n=16) were injected intraperitonealy with Compound J (200 mg/kg) twice a day and in addition, were given Compound J orally in the drinking water (300 mg/kg) on day 1 of the MOG injection and for additional 35 days post injection. Control mice (n=16) were injected twice a day with 200 mg of saline for the same time period. 0=no clinical symptom's; 1=loss of tail tonicity; 2=partial hind limb paralysis; 3=complete hind limb paralysis; 4=paralysis of four limbs; 5=total paralysis; 6=death.

## CC(=O)N[C@@H](CS)C(=O)O [N-acetyl-cysteine]
[1]
  lethal dose 50% (LD50): 5,050 mg/kg

## CCOC(=O)[C@H](CS)NC(C)=O [compound A, N-acetyl cysteine ethyl ester]
[2]
  Level of endogenous GSH in striatum: increases

## CC(=O)NC(CS)C(N)=O (centres unmarked) [compound J]
[3]
  Protection of NB cells against the toxicity of DA, L-dopa, 6-OHDA (0.1-0.25 mM) and MPP+ (0.5-2 mM): protect
[4]
  Compound J in the brain: concentration-dependent increase
[5]
  GSH levels increase over untreated animals: up to 46%
[6]
  Incidence and clinical severity of the disease: markedly reduced
[6]; day 1 to 35 days post injection, n=16
  Mice remaining disease free: 15 out of the 16
[6]; n=16, SE
  Mean of total clinical score (0-6 scale): 0.1+0.1
